This is an account of results in US20250276994A1, “CAP ANALOG FOR THE 5'-END OF EUKARYOTIC MESSENGER RNAS” (WESTFÄLISCHE WILHELMS-UNIVERSITÄT, priority 2021, published 2025).

Data set [1] is described as follows: Irradiation of caged nucleosides, conversion estimated by HPLC. In kind it is physicochemical. As to conditions: 500 μM in water/acetone/acetonitrile; 405 nm 20-60 s or 365 nm 5-20 s; LED 3 W. As for the experimental part:
Conversions from caged compounds to uncaged compounds were estimated by integrating the peaks of a UV-spectrum that resulted from the HPLC analysis (Agilent infinity 1260).
When irradiating isolated N2-modified compounds, a final volume of 10 μL in double distilled water was irradiated using a LED (λmax=365 nm/405 nm/420 nm) and then analyzed by RP-HPLC.
A 500 μM solution of the compound 15, nitropiperonylmethyl fused via a carbamate moiety to guanosine (denoted “NPOM guanosine” or “caged guanosine”), in water/acetone/acetonitrile was irradiated in a 10 μL volume with either 405 nm for 20 s, 40 s or 60 s or with 365 nm for 5 s, 10 s or 20 s, respectively, using a LED power (input 3W and output 147 mW/cm^2). HPLC analysis was performed as described above.
Samples of the adenosine fused via a carbamate moiety to 7-(diethylamino)-4-(hydroxymethyl)-coumarin (DEACM) were irradiated with 450 nm. […] The peak at 21.1 min corresponds to the obtained compound and the peaks at 11.1 and 21.9 min correspond to the photo-cleavage products adenosine and DEACM-OH, respectively.

A short description of data set [2]: Stability of the carbamate linkage in water and HeLa cell lysate (HPLC). The class given is in vitro ADME. The conditions noted are these: water or HeLa cell lysate, 24 h incubation at 37° C. As for the experimental part: To investigate the stability of the carbamate linker in cellular environment the compound 15, nitropiperonylmethyl fused via a carbamate moiety to guanosine, was studied in water and cell lysate. The cell lysate was produced by ultrasonication of HeLa cells (5*10^6 cells) in 400 μL 1×PBS buffer. The compound 15, NPOM-guanosine, suspended in water or cell lysate after 24 h incubation at 37° C. was analysed by HPLC-analysis as described above.
As can be taken from the FIG. 8, the compound 15 was stable under these conditions.

Data set [3] is described as follows: Irradiation of photocleavable 5′-cap analogs, LC-MS (triple quad). As to conditions: 30 seconds, 365 nm (3 W). The class given is physicochemical. The protocol: For determination of mass spectra, HPLC—triple-quadrupole mass spectrometry system was used. The system consists of Agilent 1260 Infinity II with dual λ absorbance detector (G7114A) HPLC part and Agilent Ultivo mass spectrometer with JetStream ion source (type of ESI). Column which was used: Agilent Poroshell 120 EC-C18 (3.0×150/2.7 μm). The polar compounds were tested by LC method (eluent 20 mM NH40Ac buffer (pH=6)/CH3CN, gradient 0-30%, column temperature=20° C.).
Samples of the photocleavable 5′-cap analog of formula (22) were irradiated for 30 seconds with 365 nm (3 W).

In data set [4] the test system is Reticulocyte Lysate. Briefly: In vitro translation of capped FLuc-mRNA and luminescence measurement. The conditions noted are these: 30 seconds at 365 nm. In kind it is biochemical. The protocol: In vitro translation was performed using a eukaryotic cell free protein expression kit from Reticulocyte Lysate (Invitrogen). Experiments were performed in 12.5 μL total volume containing 20 ng of the corresponding FLuc-mRNAs, 50 μM L-methionine and 150 mM potassium acetate. Samples were mixed with 8.5 μL of the reticulocyte lysate and incubated for 90 min at 30° C. Afterwards, 2 μL of the respective translation mix were used in subsequent luminescence measurement. The translation efficiency of the reporter mRNAs was assessed in a luciferase assay using Beetle-juice Luciferase Assay Firefly (pjk). Luciferase activity was determined by adding 50 μL freshly prepared substrate solution to the translation mixture. Luminescence was monitored using a Tecan Infinite® m1000pro microplate reader with an acquisition time of 3 s (duration of signal acquisition).
The photocleavable 5′-cap analog of formula (7) was used for in vitro transcription to make FLuc mRNA as described above. This was used for in vitro translation and Luminescence measurement as described above. The commercial non-modified cap analog denoted “m^7GpppG” (Jena Bioscience) was used as positive control. Samples were irradiated for 30 seconds. The ApppG capped mRNA, which is not recognized by the translation initiation factor served as negative control, which is substracted from the other samples as it represents background activity. The experiment was performed in quadruplicates. The FLuc-mRNA capped with the photocleavable 5′-cap analog of formula (7) is denoted “ONB”.
The in vitro translation assay and luminescence measurement was performed as described above using the photocleavable 5′-cap analog of formula (12). The capped mRNA was denoted “DMNB-m^7GpCH2ppG capped FLuc-mRNA”. Samples were irradiated for 30 seconds (365 nm) or 60 seconds (405 nm). The commercial non-modified cap analog denoted “m^7GpppG” (Jena Bioscience) was used as positive control and all other samples were normalized to it. The ApppG capped mRNA, which is not recognized by the translation initiation factor served as negative control, which is substracted from the other samples as it represents background activity. The experiment was performed in triplicates, except *DMNB-m7GpCH2ppG (365 nm) which was a single determination.
The in vitro translation assay in reticulocyte lysate and luminescence measurement was performed as described above using m^7GpppG capped FLuc-mRNA caged with the photocleavable 5′-cap analog of formulas (22) and (25) (denoted “DMNB m^7GpppG” and “NPOM m^7GpppG”). Samples were irradiated for 30 seconds at 365 nm. The ApppG capped mRNA, which is not recognized by the translation initiation factor served as negative control, which was substracted from the other samples as it represents background activity. The values were normalized to the non-irradiated sample with m^7GpppG capped mRNA (100%). The experiment was performed in triplicates.
The in vitro translation assay in reticulocyte lysate and luminescence measurement was performed as described above using m^7GpppG capped FLuc-mRNA with modified nucleotides m^5C and N^1methyl-pseudouridine caged with the photocleavable 5′-cap analog of formulas (22) and (25) (denoted “DMNB m^7GpppG mod” and “NPOM m^7GpppG mod”). Samples were irradiated for 30 seconds at 365 nm. The ApppG capped mRNA, which is not recognized by the translation initiation factor served as negative control, which was substracted from the other samples as it represents background activity. The values were normalized to the non-irradiated sample with m^7GpppG capped mRNA (100%). The experiment was performed in triplicates.

In data set [5] the test system is HeLa cells. Briefly: Translation and irradiation in HeLa cells of capped GLuc-mRNA (luminescence). In kind it is cell-based. The conditions noted are these: HeLa; GLuc-mRNA with regular or modified nucleotides; 30 seconds (365 nm). The protocol: HeLa cells were transferred to a 96 well plate 20 h prior transfection. 30.000 cells/well were cultivated in growth Media (MEM, 10% FCS, 1% glutamine, 1% Penicillin, 1% Streptomycine, […] non-essential aminoacids). For transfection the growth media was exchanged for MEM-media with 0.6 μL Metafectene® Pro (0.3 μL) and 100 ng mRNA was added per well. 6 h after transfection of the cells the media was exchange by MEM-media, followed by irradiation and another MEM-media exchange. After 24 h post transfection the supernatant in the wells was used for further luminescence measurements. Values of the ApppG capped mRNA represent cap independent translation and were therefore subtracted from the other values.
In cell translation and irradiation in cell culture of mammalian HeLa cells was performed as described above. GLuc mRNA capped with the photocleavable 5′-cap analog of formula (12) (“DMNB”) was used and the commercial non-modified cap analog denoted “m^7GpppG” (Jena Bioscience) was used as a control. HeLa cells were either transfected with the DMNB-m^7GpCH2ppG capped mRNA (irradiated and non-irradiated before transfection) or with the natural capped mRNA (irradiated and non-irradiated before transfection). Irradiation of the mRNA containing the natural cap was performed (5 V, 600 mA) with 365 nm for 30 seconds to evaluate the resulting influence on translational efficiency. DMNB-m^7GpCH2ppG capped mRNA was irradiated in the same way or with 405 nm for 60 seconds. The ApppG capped mRNA, which is not recognized by the translation initiation factor served as negative control, which is substracted from the other samples as it represents background activity. The values were normalized to the non-irradiated m^7GpppG capped sample (100%). The experiment was performed in triplicates.
The luminescence measurement of cell culture media after translation in cells transfected with modified and non-modified GLuc mRNA was repeated using irradiation with 365 nm/405 nm for different periods of time. HeLa cells were either transfected with the GLuc mRNA capped with the photocleavable 5′-cap analog of formula (12) denoted “DMNB-m^7GpCH2ppG capped mRNA” or with the natural m^7GpppG capped mRNA. Cells transfected with the natural capped mRNA were irradiated (5 V, 600 mA) with 365 nm/405 nm for 30 s or 60 s to evaluate the resulting influence on translational efficiency. Cells transfected with DMNB-m^7GpCH2ppG capped mRNA were irradiated in the same way. The ApppG capped mRNA, which is not recognized by the translation initiation factor served as negative control, which is substracted from the other samples as it represents background activity. The values were normalized to the non-irradiated cells with m^7GpppG capped mRNA (100%). The experiment was performed in triplicates.
Luminescence measurement of cell culture media after translation of transfected modified and non-modified GLuc mRNA in cells. HeLa cells were either transfected with the NPOM-m^7GpCH2ppG capped mRNA or with the natural m^7GpppG capped mRNA. Cells transfected with the natural capped mRNA were irradiated (5 V, 600 mA) with 365 nm/405 nm for different periods of time to evaluate the resulting influence on translational efficiency. Cells transfected with NPOM-m^7GpCH2ppG capped mRNA were irradiated in the same way. The ApppG capped mRNA, which is not recognized by the translation initiation factor served as negative control, which is substracted from the other samples as it represents background activity. […]

The subject of data set [6] is HEK293T cells. Briefly: In cell translation assay in HEK293T cells of capped GLuc-mRNA (luminescence). In kind it is cell-based. As to conditions: GLuc-mRNA with regular or modified nucleotides, 30 seconds (365 nm). The source says: In cell translation assay in HeLa and HEK293T cells with m^7GpppG capped GLuc-mRNA caged with the photocleavable 5′-cap analog of formula (22) (denoted “DMNB m^7GpppG”) with either A) regular nucleotides or B) modified nucleotides m^5C and N^1methyl-pseudouridine. Samples were irradiated for 30 seconds (365 nm). The ApppG capped mRNA, which is not recognized by the translation initiation factor served as negative control, which is substracted from the other samples as it represents background activity. The values were normalized to the non-irradiated sample with m^7GpppG capped mRNA (100%). The experiment was performed in triplicates.

Turning to `CC(OC(=O)Nc1nc2c(ncn2[C@@H]2O[C@H](CO)[C@@H](O)[C@H]2O)c(=O)[nH]1)c1cc2c(cc1[N+](=O)[O-])OCO2` (stereo partly shown) [compound 15, N^2-(1-(6-nitrobenzo[d][1,3]dioxol-5-yl)ethyl)oxycarbonylguanosine], in data set [1], the “conversion of caged guanosine to guanosine upon irradiation” value is “cleaved by irradiation and that guanosine is regained without side products”. The “stability (HPLC)” value in data set [2] is on record as “stable”.

As for `COc1cc(COC(=O)Nc2nc3c(c(=O)[nH]2)[n+](C)cn3[C@@H]2O[C@H](COP(=O)(O)OP(=O)(O)OP(=O)(O)OC[C@H]3O[C@@H](n4cnc5c(=O)[nH]c(N)nc54)C(O)C3O)C(O)C2O)c([N+](=O)[O-])cc1OC` (stereo partly shown) [compound 22, P1-(N^2-(4,5-Dimethoxy-2-nitrobenzyl)oxycarbonyl-7-methylguanosin-5′-yl)-P3-guanosin-5′-yl triphosphate], in data set [3], the “uncaging of the cap after irradiation (LC-MS)” value was “partially uncaged”. In addition, the “in vitro translation (luminescence) after irradiation” value in data set [4] (capped FLuc-mRNA with modified nucleotides m^5C and N^1methyl-pseudouridine) is on record as “marked increase of translation”; in data set [4] (capped FLuc-mRNA, regular nucleotides), “marked increase of translation”. For the same molecule, the “translation in cells (luminescence) after irradiation” value in data set [5] and in data set [6] was “marked increase of translation” throughout.
